# In article PMC9235892 (Virulence, 2022):
# Tested on: SARS-CoV-2 169 R
# Format: cell-based
compound,measurement,value
CN1CCN(C[C@H](O)CO[C@H]2CC[C@@]3(C)C(CCC4C3CC[C@]3(C)C(=O)CCC43)C2)CC1 (some centres unmarked) [LNB167],effect on viral load in 169 R-infected cultures (plaque assay),no reduction in viral load
CN1CCN(C[C@@H](O)CO[C@H]2CC[C@@]3(C)C(CCC4C3CC[C@]3(C)C(=O)CCC43)C2)CC1 (some centres unmarked) [LNB169],effect on viral load in 169 R-infected cultures (plaque assay),no reduction in viral load
